The subject of one data set is HIV-1, GVK4046. Put plainly: HIV-1 reproduction inhibition in MT-4 cell culture (p24 ELISA and MTT cell vitality, day 4). In kind it is cell-based. Conditions: HIV-1, GVK4046 in MT-4 cell culture, 4 days; read-out: ID50 (the source's name). The procedure:
The HIV inhibition study includes cultivation of primary infective MT-4 line lymphoid cells over the studied compounds, the ultimate concentrations of which in the culture medium range from 0.001 µg/ml to 100 µg/ml, during one passage, within 4 days.
HIV reproduction inhibition in the sensitive cell culture is determined by the reduction in p24 virus-specific protein accumulation (according to the enzyme-linked immunosorbent assay) and by the increase in cell vitality over the drug as compared with the reference cells, on Day 4 of the cultivation, using 3-(4.5-dimethylthiazole-2-yl-)-2,5-diphenyl tetrazolium (MTT) bromide staining.
The impact of the studied compounds on HIV-1 reproduction in MT-4 cell culture is studied using a well-known technique.

For the next data set, the system named is MT-4 cells. The experiment in a line: Cytotoxicity assessment in MT-4 cells (MTT / formazan method, 4 days). To be noted: concentration that reduces MT-4 cell vitality by 50%, day 4, MTT. In kind it is cell-based. The procedure: Cytotoxicity of a drug is estimated by adding its delution in RPMI-1640 serum-free medium to MT-4 cell suspension placed in cavities of the 96-cavity board (Cel-Cult, England), up to the ultimate concentrations of 0.001-100 µg/ml (three cavities per dose), with subsequent cultivation at 37°C within 4 days. The inoculation concentration is 0.5x10^6 cell particles in 1 mm. The cells, to which the drug was not added and was substituted with the same quantity of the serum-free medium, serve as the reference. The cell vitality is counted on Day 4 of cultivation, using the formazan method (intravital staining of MTT cells). Toxicity of different drug doses is determined by the cell vitality as compared with the reference cells; the dose-dependent curve is built using obtained data, and the concentration that reduces cell vitality by 50% (CD50) is determined. […] It is also noteworthy that 50% toxic doses exceed HIV-1 effective doses by a factor of 2-4 (see Table 1) .

Data set [1] is described as follows: Stability analysis of 1% water solutions at room temperature. To be noted: within a month. Format: physicochemical. As to the method: The stability analysis for the obtained compounds in the form of 1% water solutions at room temperature was carried out. The acid form of the carbamoyl phosphonate and ammonia salt degrade by 40% and 2%, respectively, within a month; no destruction products were detected for the rest of salts within a month.

As for `Cc1cn([C@H]2C[C@H](N=[N+]=[N-])[C@@H](COP(=O)(O)C(N)=O)O2)c(=O)[nH]c1=O` [Acid form (reference), [(2S,3S,5R)-3-azido-5-(5-methyl-2,4-deoxythymidine-1-yl)oxolan-2-yl]methyl ester of carbamoyl phosphonic acid, reference compound], in the data set on HIV-1, GVK4046, the IC50 stood at 800 nM. Further, in the data set on MT-4 cells, the CD50 came out at 2.6 µM. This compound also yielded a degrade in data set [1] of 40%.

The values are drawn from patent publication EP2767543B1, “SALTS OF CARBAMOYL PHOSPHONIC ACID ESTERS WHICH ACT AS SELECTIVE INHIBITORS OF HUMAN IMMUNODEFICIENCY VIRUS HIV-1 PRODUCTION” (Aktsionernoe Obshcestvo "Proizvodstvenno-Kommercheskaya …, priority 2011, dated 2013).
